# Source: PubChem BioAssay (NCI)
# Values joined by “and” are separate entries in the source; they are usually repeats but may differ in a detail not shown here. Equal entries are not always repeated.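 Dose response: 5 concentrations. Exposure: 48 h. Format: 96-well plates. Endpoint: linear interpolation; highest concentration if not reached. TGI marks complete inhibition of growth.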
# Key:
# Test in all cases: NCI tumour cell line growth inhibition, 48 h
# [1] = test system: HOP-18 NSCLC
# [2] = test system: M19-MEL melanoma
# [3] = test system: RXF-631 renal
# [4] = test system: M14 melanoma
# [5] = test system: ACHN renal
# [6] = test system: LXFL 529 NSCLC
# [7] = test system: SNB-78 CNS
# [8] = test system: DU-145 prostate
# [9] = test system: MDA-MB-435
# [10] = test system: PC-3 prostate
# [11] = test system: HS 578T breast
# [12] = test system: T-47D breast
# [13] = test system: P388/ADR leukemia
# [14] = test system: DMS 114 small cell lung
# [15] = test system: SN12K1 renal
# [16] = test system: P388 leukemia
# [17] = test system: XF 498 CNS
# [18] = test system: 786-0 renal
# [19] = test system: MDA-N
Compound,TGI [1] [µM],TGI [2] [µM],TGI [3] [µM],TGI [4],TGI [5],TGI [6] [µM],TGI [7] [µM],TGI [8],TGI [9],TGI [10],TGI [11],TGI [12],TGI [13] [µM],TGI [14] [µM],TGI [15] [µM],TGI [16] [µM],TGI [17] [µM],TGI [18] [µM],TGI [19] [µM]
OCC1O[C@H](O[C@@H]2CCCN3CC(O)C(O)[C@@H]23)C(O)C(O)C1O (stereo partly specified),> 100,> 100,> 100,> 100 µM,> 100 µM,> 100,> 100,,,,,,,,,,,,
COc1cc(OC2OC(CO)C(O)C(O)C2O)c2c(O)c3c(=O)cc(C)oc3cc2c1 (stereo unspecified),,,,> 100 µM,> 100 µM,,,> 100 µM,> 100 µM,> 100 µM,> 100 µM,> 100 µM,,,,,,,
S=c1sc2c(s1)SC(c1ccccc1)CS2 (stereo unspecified),> 100,> 100,,,,,> 100,,,,,,> 100,> 100,> 100,> 100,,,
CCCCCC(=O)N[C@@H](c1ccco1)[C@@H](O)C(=O)O[C@H]1C[C@@]2(O)[C@@H](OC(=O)c3ccccc3)[C@@H]3[C@]4(OC(C)=O)CO[C@@H]4C[C@H](O)[C@@]3(C)C(=O)[C@H](OC(C)=O)C(=C1C)C2(C)C,,,,,> 25 µM,,,0.0101 µM,,,0.0309 µM and 0.025 µM,,,,,,,,
CCNC(=O)C(C)C1CCC2(C)C=CC(=O)C(C)=C2C1O (stereo unspecified),> 100,> 100,,,,,> 100,,,,,,> 100,> 100,> 100,> 100,> 100,,
Nc1nc(Nc2ccc(Cl)c(Cl)c2)nc2nc[nH]c12,,,,29.8 µM,25.2 µM,,,21.6 µM,32 µM,41.2 µM,20.2 µM,25.1 µM,,,,,,31.3,33.5
C[N+](C)(CCCCCC[N+](C)(C)CCCN1C(=O)c2cccc3cccc(c23)C1=O)CCCN1C(=O)c2cccc3cccc(c23)C1=O,,,,,> 100 µM,,,> 100 µM,> 100 µM,> 100 µM,> 100 µM,> 100 µM,,,,,,,> 100
N#C/C(=C\c1ccncc1)c1csc2ccccc12,99.7,> 91.2,,,,,73.8,,,,,,25.2,,> 77.7,39.2,46.3,,
O=C1OC(c2ccccc2)=NC1c1ccccc1 (stereo unspecified),,,,> 100 µM,> 100 µM,,,> 100 µM,> 100 µM,> 100 µM,> 100 µM,> 100 µM,,,,,,> 100,> 100
Cc1ccc(/C=C2\Sc3scc(-c4ccccc4)[n+]3C2=O)cc1,,,,> 94.9 µM,51.7 µM,,,> 65.9 µM,> 44.3 µM,> 100 µM,37.5 µM,> 100 µM,,,,,,> 56,> 67.1
O=C(NN1C(=O)C(Cl)C1c1ccccc1O)c1ccccc1O (stereo unspecified),,,,> 100 µM,,> 100,,,,,,,,55.2,,,,,
O=[N+]([O-])C(=C/c1ccccc1)/C(=C\c1ccccc1)[N+](=O)[O-],,,,41.6 µM,30.6 µM,,,29.7 µM,30.3 µM,44.7 µM,77.1 µM,48.2 µM,,,,,,,33.1
O=NN1C(c2ccccc2)CNC(=O)CC1c1ccccc1 (stereo unspecified),> 100,> 100,,,,,> 100,,,,,,63.5,59.3,> 100,62.3,,,
FC(F)(F)c1ccc2c(c1)N(CCCNCCN1CCOCC1)c1ccccc1S2,,22.5,,4.13 µM,24.7 µM,25.6,23.8,,,,,,,,,,15.2,,
O=C(Nc1ccc([N+](=O)[O-])cc1)Nn1cnnc1,,,,> 100 µM,> 100 µM,,,> 100 µM,> 100 µM,> 100 µM,93.2 µM,> 100 µM,,,,,,,> 100
COc1ccccc1/C=C(/C)[N+](=O)[O-],,,,25.6 µM and 2.78 µM,4.68 µM and 5.46 µM,,,3.12 µM and 2.36 µM,9.18 µM and 3.64 µM,6.5 µM and 5.37 µM,29.3 µM and 26.9 µM,4.64 µM and 3.37 µM,,,,,,> 100,
OCC#CCNCl,> 100,> 100,,,,,> 100,,,,,,> 100,> 100,> 100,> 100,> 95.2,,
